These results are taken from patent US20130017570A1, “METHOD FOR MONITORING STATE OF DIFFERENTIATION IN STEM CELL” (OLYMPUS CORPORATION, priority 2010, published 2013).

The experiment concerns Nanog gene expression in mouse ES cells constitutively expressing Nanog-Eluc. In words: Luminescence imaging of Nanog-Eluc expression in ES cell colonies under FGF stimulus and FGF signal inhibitors. The format is cell-based. The conditions noted are these: FGF 10 ng/ml, medium without LIF, before inhibitor addition. The text has this: Mouse ES cells used in Example 1-2 were used, which is constitutively expressing Nanog-Eluc. The cells were differentiation-induced with FGF (Fibroblast Growth Factor), and then observed under condition with signal transduction inhibitor. FGF signal is a signal transduction which induces stem cell differentiation, and it has been reported that the stem cell returns from the differentiated state to the undifferentiated state by the action of an inhibitor (T. Kunath et al., Development 134, pp. 2895-2902, 2007). The preparation method of ES cells is in the same manner as in Example 1-2. […]
D-luciferin (manufactured by Promega KK: final concentration of 500 μM) was added for luminescence observation, FGF (FGFβ human, PeproTech Inc.) was added so as to have a final concentration of 10 ng/ml, and then the mouse ES cells were observed using a luminescence microscope LV200 (manufactured by Olympus Corporation). As the luminescence observation conditions, the luminescence images of the mouse ES cells were taken under 55 min exposure at 1 hour intervals, thereby observing Nanog gene expression level. […]
After the time-lapse observation, the captured images were saved, and numerical data was analyzed from the observation images using an image analysis software “AQUACOSMOS (manufactured by Hamamatsu Photonics K.K.)”, and the analyzed numerical data was shown as graph data. […]

Turning to “FGF: Fibroblast Growth Factor (FGFβ human, PeproTech Inc.) used for differentiation induction”, the “Nanog expression (luminescence intensity) when adding FGF, expression pattern C colonies” value is reported as “not seen”.
